How the values were obtained:
[1] = tested on: in vitro blood-brain barrier model (membranous cell sheet formed by endothelial cells)
[2] = tested on: in vitro blood-brain barrier model (membranous cell sheet formed by endothelial cells); assay: test of a blood-brain barrier toxic drug on the in vitro blood-brain barrier model; conditions: FIG. 20
Procedure: A test of a blood-brain barrier toxic drug is carried out to determine the response of the blood-brain barrier model constructed in the embodiment to the blood-brain barrier toxic drug.

Compound | content detected in the lower chamber [1] | barrier function of the blood-brain barrier model ([2]; after self-recovery for 24 hours following drug treatment) | barrier function of the blood-brain barrier model ([2]; after treatment with the blood-brain barrier toxic drug)
NCCc1ccc(O)c(O)c1 [dopamine] | the content of the L-dopamine detected in the lower chamber is significantly higher than that of the dopamine |  | 
N[C@@H](Cc1ccc(O)c(O)c1)C(=O)O [L-dopamine] | significantly higher than that of the dopamine |  | 
CN[C@@H](C)Cc1ccccc1 [methamphetamine] |  | significantly improved | significantly reduced

Reference: US20240369539A1, “AN ADHERENT CELL CULTURE METHOD FOR GENERATING TIGHT JUNCTION BETWEEN CELLS AND ITS PRODUCT APPLICATION” (ZHEJIANG UNIVERSITY, priority 2021, published 2024)
